Data set [1] deals with T1, eqBuChE (Equus caballus, UniProt P81908).
T1 construct: purchased Sigma-Aldrich
Briefly: biochemical. The note with it: means±SEM of at least three experiments.

Data set [2] addresses T2, human butyrylcholinesterase (hBuChE) (Homo sapiens, UniProt P06276).
T2 construct: from human plasma was from Vivonics (Bedford, MA, USA); purchased Vivonics (Bedford, MA, USA); host or cells: human plasma
Briefly: biochemical. The settings on record: means±SEM of at least three experiments.

For data set [3], the target named is T3, human CYP2D6 (Homo sapiens, UniProt P10635).
T3 construct: purchased Thermo Fisher Scientific
Briefly: Inhibition of human CYP450 isoforms (Vivid kits). It is filed as in vitro ADME. The note with it: recombinant CYP2D6, 10 min. The protocol:
nonlinear regression analysis using GraphPad Prism 9.0 software. All values are expressed as […]
Table S10. The viability of cells. neurotoxicity immuntoxicity
The results (viability values) are provided as a percentage of live cells with respect to DMSO (control sample)
Table S11. The viability of cells. […]
Inhibition of human CYP450 isoforms
The inhibitory potential of compound 6 toward human CYP1A2, CYP2C9, CYP2D6, and CYP3A4 enzymes was assessed using Vivid® CYP450 Screening Kits (Thermo Fisher Scientific, Waltham, MA, USA). A six -point concentration gradient of compound 6 was prepared in reaction buffer and pipetted onto a black 96 -well plate (Brand, Wertheim Germany) and then a mixture of the respective recombinant CYP isoenzyme and the NADPH regeneration system was added, following the manufacturer’s instructions. The DMSO concentration was maintained at 0.5% in all reaction v ariants including controls. […]
adding NADP+ and the respective CYP isoenzyme substrate. After a further 10-minute incubation at 37°C, the formation of the reaction product was measured as fluorescence using a SPARK microplate reader (TECAN, Männedorf, Switzerland). The half-maximal inhibitory concentration (IC50) values were calculated by fitting the data to sigmoidal Hill curves using GraphPad Prism version 10.1.2. […]

Data set [4] relates to SIM-A9 cells. Briefly: Intracellular RONS, DCFH-DA probe, SIM-A9. It is filed as cell-based, mouse.
In data set [5] the test system is SIM-A9 cells. Briefly: Intracellular O2•-, DHE probe, SIM-A9. In kind it is cell-based, mouse.
Data set [6] in a line: Stability in plasma (UHPLC-MS method validation). The note with it: rat plasma. In kind it is in vitro ADME. From the text:
UHPLC-MS method for pharmacokinetics study
Ultra high-performance liquid chromatography system consisting of Ultimate 3000 RS pump Dionex (Thermo Scientific, San Jose, CA, USA) coupled with high-resolution mass spectrometer with orbitrap analyzer (Q Exactive Focus, Thermo Scientific, San Jose, CA, USA) was used in quantitative analyses of 6 in plasma and brain homogenate. According to the EMA[43] and FDA[42] guidelines on Bioanalytical method validation, the method was fully validated for plasma and partially for brain homogenate. All the evaluated parameters met the […]
Table S12. Summary of validation results (precision and accuracy) in plasma for five different concentrations - limit of quantitation(LLOQ), low (QC A), mid (QC B), high (QC C) a dilution (QC D) level. […]
Stability evaluation in rat plasma as deviation from the reference value (100%)

For data set [7], the system named is BuChE. The settings on record: 1 or 5 µM compound (printed '1 or 5 M'), vs DMSO.

The term IC50 denotes the concentration at which inhibition is half-maximal.

T2 sequence (P06276 29-602): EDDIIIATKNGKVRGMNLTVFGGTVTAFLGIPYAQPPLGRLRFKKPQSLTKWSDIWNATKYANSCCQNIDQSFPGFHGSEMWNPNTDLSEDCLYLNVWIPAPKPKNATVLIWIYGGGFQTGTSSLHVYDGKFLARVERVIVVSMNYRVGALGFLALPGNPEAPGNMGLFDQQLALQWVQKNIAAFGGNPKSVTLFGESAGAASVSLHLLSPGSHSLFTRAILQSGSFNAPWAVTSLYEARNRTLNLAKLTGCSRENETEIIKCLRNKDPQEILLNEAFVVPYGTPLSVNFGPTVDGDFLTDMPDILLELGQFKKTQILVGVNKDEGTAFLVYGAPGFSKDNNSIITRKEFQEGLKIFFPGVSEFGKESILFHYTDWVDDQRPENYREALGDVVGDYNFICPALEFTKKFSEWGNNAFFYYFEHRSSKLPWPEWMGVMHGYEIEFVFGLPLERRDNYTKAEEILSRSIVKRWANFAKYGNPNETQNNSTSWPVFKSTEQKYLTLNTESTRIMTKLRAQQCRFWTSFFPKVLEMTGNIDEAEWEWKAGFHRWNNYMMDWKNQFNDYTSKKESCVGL
T1 sequence (P81908 whole entry): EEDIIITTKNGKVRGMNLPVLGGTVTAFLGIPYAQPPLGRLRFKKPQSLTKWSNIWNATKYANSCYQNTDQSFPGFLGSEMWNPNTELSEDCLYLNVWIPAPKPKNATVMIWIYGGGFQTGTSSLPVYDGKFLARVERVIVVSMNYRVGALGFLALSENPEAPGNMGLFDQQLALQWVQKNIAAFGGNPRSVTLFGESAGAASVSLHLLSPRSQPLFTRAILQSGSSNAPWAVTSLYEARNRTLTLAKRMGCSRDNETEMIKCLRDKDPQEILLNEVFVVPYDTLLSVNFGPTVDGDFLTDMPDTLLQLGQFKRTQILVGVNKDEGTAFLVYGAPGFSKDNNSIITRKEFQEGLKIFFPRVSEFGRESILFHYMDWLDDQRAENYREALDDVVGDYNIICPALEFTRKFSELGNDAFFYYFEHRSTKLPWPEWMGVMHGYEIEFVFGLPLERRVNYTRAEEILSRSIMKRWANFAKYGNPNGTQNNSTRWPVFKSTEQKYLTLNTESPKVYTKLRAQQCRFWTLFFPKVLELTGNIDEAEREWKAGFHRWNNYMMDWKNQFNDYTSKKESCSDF
T3 sequence (P10635 whole entry): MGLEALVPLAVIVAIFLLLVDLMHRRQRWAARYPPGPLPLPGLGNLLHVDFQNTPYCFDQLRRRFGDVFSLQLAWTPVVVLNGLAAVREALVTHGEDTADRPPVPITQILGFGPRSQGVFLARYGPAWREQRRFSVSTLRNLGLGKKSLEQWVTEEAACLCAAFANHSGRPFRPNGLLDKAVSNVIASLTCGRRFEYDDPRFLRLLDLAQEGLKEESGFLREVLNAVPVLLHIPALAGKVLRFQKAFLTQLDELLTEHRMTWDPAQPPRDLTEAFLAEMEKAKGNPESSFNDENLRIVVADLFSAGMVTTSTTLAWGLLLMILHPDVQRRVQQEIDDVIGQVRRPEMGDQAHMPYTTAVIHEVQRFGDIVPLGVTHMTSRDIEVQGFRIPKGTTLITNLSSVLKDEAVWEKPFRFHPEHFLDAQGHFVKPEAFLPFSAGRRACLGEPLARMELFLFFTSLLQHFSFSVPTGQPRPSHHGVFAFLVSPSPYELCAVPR

With `O[C@H](CNCC1CC1)[C@H](Cc1ccccc1)NC1c2ccccc2-c2ccccc21` [Compound 6], the IC50 was 0.31 ± 0.01 µM in data set [1] and 0.21 ± 0.01 µM in data set [2]. For the same molecule, in data set [3], the CYP2D6 inhibition entry is on record as “CYP2D6 inhibitor”. For the same molecule, the “increase in intracellular RONS” value in data set [4] (IC50, ½ IC50, ¼ IC50, 1, 4, 24 h) was “no significant increase”. The “intracellular RONS, times lower” value in data set [4] (conc. = IC50, 24 h) was determined as 1.63 fold. The “increase in intracellular O2•-” value in data set [5] (all concentrations and times) was “no significant increase”. Besides, the “decrease of O2•- level” value in data set [5] (conc. = IC50, 24 h) was determined as 26%. Moreover, the “Autosampler stability % (24h)” value is 97,6 ± 1,5% in data set [6] (QC B (33,50 ng/mL), vs reference value 100%) and 94,6 ± 2,5% in data set [6] (QC C (452,73 ng/mL)). For the same molecule, the “Freeze-thaw stability % (3 cycles)” value in data set [6] (QC B) is given as 95,8% ± 4,0; in data set [6] (QC C) it was 102,0 ± 4,7%. For the same molecule, the “Long-term stability % (3 month)” value in data set [6] (QC B) was 109,9 ± 0,5%; in data set [6] (QC C), 105,7 ± 2,2%. Also, the “Melting temperature (Tm) of BuChE” value in data set [7] was “increased Tm of BuChE”.
